From patent US7214826B2, “Amine compounds and inhibiting neurotransmitter reuptake” (Mayo Foundation for Medical Education and Research, priority 2001, dated 2007)

Legend:
[1] = molecular target: T1, human dopamine transporter (hDAT) (Homo sapiens, UniProt Q01959); test: Human transporter binding studies: radioligand binding to cloned hDAT ([3H]WIN35428); settings: for Kd: HEK-293 cell membranes, 1 nM [3H]WIN35428, 22° C., 1 hour, geometric mean of at least three experiments; for specificity for hDAT compared to venlafaxine (in words): comparison of Kd values with venlafaxine
T1 construct: expressed in transfected cells
Protocol: (§1) The cells were incubated in 10% CO2, 90% air at 37° C. and 100% humidity. The hNET cell cultures contained 250 μg/mL geneticin sulfate. The cells were grown to 70–80% confluency prior to harvesting.
(§2) Cell membranes containing hSERT, hNET, or hDAT were prepared from the cell lines to assay ligand binding for each of the transporters. […] The washed cells were incubated for 5 minutes at 38° C. in 10 mL solution 1 containing 100 mM ethylene glycol-bis N,N,N′,N′-tetraacetic acid (EGTA). The cells were then scraped from the flask surface with a rubber spatula, placed into a centrifuge tube, and collected by centrifugation at 1000×g for 5 minutes at 4° C. The resulting supernatant was discarded, and the cell pellet was resuspended in 0.5 to 1.0 mL of the appropriate binding buffer (described below). The resuspended cell pellet was homogenized using a Polytron for 10 seconds at setting 6. The resulting homogenate was centrifuged at about 36,000×g for 10 minutes at 4° C. The supernatant was discarded, and the pellet was resuspended in the same volume of the appropriate binding buffer and centrifuged again. The supernatant was discarded, and the final pellet containing cell membranes was resuspended in the appropriate binding buffer and stored at −80° C. until use.
To assess binding to the cloned hDAT, cells expressing hDAT were homogenized in 50 mM Tris-HCl with 120 mM NaCl (pH 7.4). […] The reactions were incubated at 22° C. for 1 hour. Following incubation, the reactions were terminated by rapid filtration through separate GF/B filter strips pretreated with 0.2% polyethylenimine in a 48-well Brandel cell harvester. The cell membrane-containing filter strips were then rinsed five times with ice-cold 0.9% NaCl. After rinsing, individual filters were cut from the strip and placed in a scintillation vial containing 6.5 mL of Redi-Safe (Beckman Instruments, Fullerton, Calif.). Radioactivity was measured with a Beckman liquid scintillation counter (LS 5000TD).
(§3) The program was modified to calculate the Hill coefficient (nH). Data are presented as geometric mean ±S.E.M. of at least three independent experiments. One-component models and two-component models were compared using the root mean square error of each fit and the F test.

[2] = molecular target: T2, human serotonin transporter (hSERT) (Homo sapiens, UniProt P31645); test: Human transporter binding studies: radioligand binding to cloned hSERT ([3H]imipramine); settings: for Kd: HEK-293 cell membranes, 1.0 nM [3H]imipramine, 22° C., 60 minutes, geometric mean of at least three experiments; for specificity for hSERT compared to venlafaxine (in words): comparison of Kd values with venlafaxine; for specificity for hSERT relative to hNET and hDAT (in words): comparison of Kd values between transporters
T2 construct: expressed in transfected cells
Protocol: as §1, §2
Radioligand binding assays for the indicated transporters were performed as follows. To assess binding to the cloned hSERT, cells expressing hSERT were homogenized in 50 mM Tris-HCl with 120 mM NaCl and 5 mM KCl (pH 7.4). […] The reactions were incubated at 22° C. for 60 minutes. Following incubation, the reactions were terminated by rapid filtration through separate GF/B filter strips pretreated with 0.2% polyethylenimine in a 48-well Brandel cell harvester. The cell membrane-containing filter strips were then rinsed five times with ice-cold 0.9% NaCl. After rinsing, individual filters were cut from the strip and placed in a scintillation vial containing 6.5 mL of Redi-Safe (Beckman Instruments, Fullerton, Calif.). Radioactivity was measured with a Beckman liquid scintillation counter (LS 5000TD).
as §3

[3] = molecular target: T3, human norepinephrine transporter (hNET) (Homo sapiens, UniProt P23975); test: Human transporter binding studies: radioligand binding to cloned hNET ([3H]nisoxetine); settings: for Kd: HEK-293 cell membranes, 0.5 nM [3H]nisoxetine, 22° C., 60 minutes, geometric mean of at least three experiments; for specificity for hNET compared to venlafaxine (in words): comparison of Kd values with venlafaxine
T3 construct: expressed in transfected cells
Protocol: as §1, §2
To assess binding to the cloned hNET, cells expressing hNET were homogenized in 50 mM Tris-HCl with 300 mM NaCl and 5 mM KCl (pH 7.4). […] A reaction to determine non-specific binding consisted of 25 μg cell membrane protein, 0.5 nM [^3H]nisoxetine, and 1 μM final concentration of unlabeled nisoxetine. The reactions were incubated at 22° C. for 60 minutes. Following incubation, the reactions were terminated by rapid filtration through separate GF/B filter strips pretreated with 0.2% polyethylenimine in a 48-well Brandel cell harvester. The cell membrane-containing filter strips were then rinsed five times with ice-cold 0.9% NaCl. After rinsing, individual filters were cut from the strip and placed in a scintillation vial containing 6.5 mL of Redi-Safe (Beckman Instruments, Fullerton, Calif.). Radioactivity was measured with a Beckman liquid scintillation counter (LS 5000TD).
as §3

T3 sequence (P23975 whole entry): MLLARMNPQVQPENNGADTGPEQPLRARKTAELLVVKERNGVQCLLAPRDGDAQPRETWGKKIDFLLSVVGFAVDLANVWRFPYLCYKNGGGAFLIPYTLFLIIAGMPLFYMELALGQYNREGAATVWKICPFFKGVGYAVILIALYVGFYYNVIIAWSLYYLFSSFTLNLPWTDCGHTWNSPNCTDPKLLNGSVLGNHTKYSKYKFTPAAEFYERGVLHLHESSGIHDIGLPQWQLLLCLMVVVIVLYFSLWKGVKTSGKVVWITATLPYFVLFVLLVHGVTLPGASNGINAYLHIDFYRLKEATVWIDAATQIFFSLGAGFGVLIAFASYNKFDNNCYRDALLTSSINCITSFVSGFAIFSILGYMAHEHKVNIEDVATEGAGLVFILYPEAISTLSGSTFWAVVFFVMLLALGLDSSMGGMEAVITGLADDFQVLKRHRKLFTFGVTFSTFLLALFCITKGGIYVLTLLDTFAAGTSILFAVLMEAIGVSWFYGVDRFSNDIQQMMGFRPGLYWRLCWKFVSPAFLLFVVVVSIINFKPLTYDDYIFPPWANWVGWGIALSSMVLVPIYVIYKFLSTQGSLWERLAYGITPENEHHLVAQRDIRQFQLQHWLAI
T1 sequence (Q01959 whole entry): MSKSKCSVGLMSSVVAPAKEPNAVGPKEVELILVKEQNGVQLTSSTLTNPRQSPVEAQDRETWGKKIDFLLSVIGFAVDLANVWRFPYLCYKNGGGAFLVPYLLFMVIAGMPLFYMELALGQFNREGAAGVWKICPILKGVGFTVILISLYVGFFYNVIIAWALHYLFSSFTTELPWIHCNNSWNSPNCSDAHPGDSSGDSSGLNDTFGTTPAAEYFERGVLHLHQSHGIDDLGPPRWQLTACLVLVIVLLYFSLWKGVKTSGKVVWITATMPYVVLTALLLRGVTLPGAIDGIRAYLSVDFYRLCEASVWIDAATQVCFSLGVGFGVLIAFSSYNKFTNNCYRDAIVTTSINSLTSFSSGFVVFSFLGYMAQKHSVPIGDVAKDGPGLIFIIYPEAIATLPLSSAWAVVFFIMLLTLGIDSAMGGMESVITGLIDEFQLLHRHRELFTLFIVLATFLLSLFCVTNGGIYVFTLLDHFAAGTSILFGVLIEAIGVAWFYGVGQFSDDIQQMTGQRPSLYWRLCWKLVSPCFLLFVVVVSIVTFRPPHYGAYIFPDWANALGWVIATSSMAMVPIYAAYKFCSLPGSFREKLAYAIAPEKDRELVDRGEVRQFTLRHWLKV
T2 sequence (P31645 whole entry): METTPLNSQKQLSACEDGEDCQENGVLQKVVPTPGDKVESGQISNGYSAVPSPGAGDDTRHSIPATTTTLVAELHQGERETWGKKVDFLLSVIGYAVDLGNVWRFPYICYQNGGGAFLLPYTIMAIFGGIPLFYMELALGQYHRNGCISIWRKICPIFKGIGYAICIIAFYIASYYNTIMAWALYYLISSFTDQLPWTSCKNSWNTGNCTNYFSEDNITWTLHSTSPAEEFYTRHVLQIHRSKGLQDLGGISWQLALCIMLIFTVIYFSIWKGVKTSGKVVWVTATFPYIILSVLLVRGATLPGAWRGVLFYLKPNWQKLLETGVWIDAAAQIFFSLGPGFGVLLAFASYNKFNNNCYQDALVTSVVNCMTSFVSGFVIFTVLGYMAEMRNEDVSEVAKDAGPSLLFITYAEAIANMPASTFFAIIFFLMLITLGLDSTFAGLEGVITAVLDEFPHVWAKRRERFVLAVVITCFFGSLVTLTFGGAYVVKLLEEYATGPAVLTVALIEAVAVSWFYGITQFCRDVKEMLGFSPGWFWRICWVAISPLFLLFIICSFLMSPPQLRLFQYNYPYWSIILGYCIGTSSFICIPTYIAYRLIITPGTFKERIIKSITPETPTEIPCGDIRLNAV

| SMILES | Kd [1] [µM] | specificity for hDAT compared to venlafaxine (in words) [1] | Kd [2] [µM] | specificity for hSERT compared to venlafaxine (in words) [2] | Kd [3] [µM] | specificity for hNET compared to venlafaxine (in words) [3] | binding to hNET ranked among all compounds tested (in words) [3] | specificity for hNET relative to hSERT and hDAT (in words) [3] | specificity for hSERT relative to hNET and hDAT (in words) [2] |
| --- | --- | --- | --- | --- | --- | --- | --- | --- | --- |
| CC(C)[C@H](O)[C@@H](CN(C)C)c1ccc2ccccc2c1 [Compound D1, (2R, 3S)-N,N-dimethyl-3-hydroxy-4-methyl-2-(2′-naphthyl)pentylamine] | 0.15 | greater specificity for all three transporters compared to venlafaxine | 0.0042 | greater specificity for all three transporters compared to venlafaxine | 0.0074 | greater specificity for all three transporters compared to venlafaxine |  |  |  |
| CN(C)C[C@H](c1ccc2ccccc2c1)[C@@H](O)c1ccccc1 (racemic) [F, racemic mixture of (2S, 3R)- and (2R, 3S)-N,N-dimethyl-3-hydroxy-2-(2′-naphthyl)-3-phenylpropylamine] |  | greater specificity for hDAT compared to vanlafaxine |  |  |  |  |  |  |  |
| CNCC(c1ccc2ccccc2c1)C(O)c1ccccc1 (racemic) [Compound B, racemic mixture of (2S, 3R)- and (2R, 3S)-N-methyl-3-hydroxy-2-(2′-naphthyl)-3-phenylpropylamine] | 0.39 | greater specificity for hDAT than the parent analogue venlfaxine |  |  |  |  |  |  |  |
| CNCC(c1ccc2ccccc2c1)C(O)c1ccccc1 (racemic) [Compound A, racemic mixture of (2R, 3R)- and (2S, 3S)-N-methyl-3-hydroxy-2-(2′-naphthyl)-3-phenylpropylamine] | 0.13 |  | 0.0063 |  | 0.00025 |  | strongest binding to hNET of all the compounds tested | greater specificity for hNET than for hSERT or hDAT |  |
| CC(C)C(O)C(CN(C)C)c1ccc2ccccc2c1 (racemic) [Compound D, racemic mixture of (2R, 3S)- and (2S, 3R)-N,N-dimethyl-3-hydroxy-4-methyl-2-(2′naphthyl)pentylamine] | 0.18 | more potent inhibitor of all three transporters compared to vanlafaxine | 0.0003 | more potent inhibitor of all three transporters compared to vanlafaxine | 0.0146 | more potent inhibitor of all three transporters compared to vanlafaxine |  |  | stronger binding to hSERT than to hNET or hDAT |
| CC(C)C(O)C(CN)c1ccc2ccccc2c1 (racemic) [Compound C, racemic mixture of (2R, 3S)- and (2S, 3R)-3-hydroxy-4-methyl-2-(2′-naphthyl)pentylamine] | 0.88 | greater specificity for all three transporters compared to venlafaxine | 0.0057 | greater specificity for all three transporters compared to venlafaxine | 0.329 | greater specificity for all three transporters compared to venlafaxine |  |  | more potent inhibitor of hSERT than of hNET or hDAT |
| CC(C)[C@@H](O)[C@H](CN(C)C)c1ccc2ccccc2c1 [Compound D2, (2S, 3R)-N,N-dimethyl-3-hydroxy-4-methyl-2-(2′-naphthyl)pentylamine] | 0.8 | greater specificity for all three transporters compared to venlafaxine | 0.0026 | greater specificity for all three transporters compared to venlafaxine | 0.06 | greater specificity for all three transporters compared to venlafaxine |  |  | greater specificity for hSERT than for hNET or hDAT |
| CC(C)C(O)C(CN)c1ccc2ccccc2c1 (single isomer, unassigned) [Compound C2] | 1.6 | greater specificity for all three transporters compared to venlafaxine | 0.0151 |  | 0.14 |  |  |  | greater specificity for hSERT than for hNET of hDAT |
| NCC(c1ccc2ccccc2c1)C(O)c1ccccc1 (racemic) [E, racemic mixture of (2S, 3R)- and (2R, 3S)-3-hydroxy-2-(2′naphthyl)-3-phenylpropylamine] | 0.42 | greater specificity for hDAT compared to vanlafaxine |  |  |  |  |  |  |  |
| CC(C)C(O)C(CN)c1ccc2ccccc2c1 (single isomer, unassigned) [Compound C1] | 1.28 | greater specificity for all three transporters compared to venlafaxine | 0.007 | greater specificity for all three transporters compared to venlafaxine | 0.15 | greater specificity for all three transporters compared to venlafaxine |  |  | greater specificity for hSERT than for hNET of hDAT |
